Assay results published in US7943606B2, “Compositions and methods to control abnormal cell growth” (CanCure Laboratories, LLC, priority 2005, dated 2011).

How the values were obtained:
U-87 cells = experiment: Viability of U-87 malignant glioma cells (MTT assay); format: cell-based, human; details: 100-200 μM, 72 hours
Description: (§1) To quantify cell death, around the time when significant and characteristic morphological changes took place, cells were pulse-labeled for 10 minutes with [^3H]thymidine to measure DNA activity as described elsewhere [Tomono, M. and Kiss, Z. (1995), “Ethanol enhances the stimulatory effects of insulin and insulin-like growth factor-I on DNA synthesis in NIH 3T3 fibroblasts,” Biochem. Biophys. Res. Commun. 208, 63-67]. Also, cells were collected as suspensions using trypsin, an established method in cell biology, followed by re-plating of cells in fresh tissue culture medium. If no viable cells were obtained after one week in culture, it meant that the cells at the time of re-plating were dead. Survival values obtained with untreated cells were considered 100%. For the determination of relative number of viable cells after treatments, in most cases the MTT assay was used. This calorimetric assay is based on the ability of living cells, but not dead cells, to reduce 3-(4,5-dimethyl thiazol-2-yl)-2,5-diphenyltetrazolium bromide [Carmichael, J, De Graff, W. G., Gazdar, A. F., Minna, J. D. and Mitchell, J. B. (1987), “Evaluation of tetrazolium-based semi-automated calorimetric assay: Assessment of chemosensitivity testing,” Cancer Res. 47, 936-942]. For this assay, cells were plated in 96-well plates, and the MTT assay was performed both in untreated and treated cell cultures. […]

HepG2 cells = experiment: Viability of HepG2 hepatoblastoma cells (MTT assay); format: cell-based, human; details: 50 and 100 μM, 10 days
Description: as §1

[1] = system: HL-60, HT-168, PC-3 and T47D cells; experiment: Viability of four human cancer cell types by Trypan blue exclusion; format: cell-based
Description: PC-3 human prostate adenocarcinoma cells were cultured in 12-well plates in Ham's F12 cell culture medium supplemented with 7% fetal bovine serum; the medium was changed for fresh 10% medium 2 hours prior to treatments. HL-60 human leukemia cells (in flasks) and HT 168 human melanoma cells were cultured in RPMI 1640 medium supplemented with 10% FCS; treatment of HL-60 and HT-168 cells were performed in flasks and 12-well plates, respectively. T47D cells were cultured in 12-well plates in RPMI 1640 medium supplemented with 2 mM L-glutamine, 10 mM Hepes, 1 mM sodium pyruvate, 4.5 g/L glucose, 1.5 g/L sodium bicarbonate, 0.2 I.U. bovine insulin/ml, and 10% fetal bovine serum; the medium was changed for fresh 10% serum-containing medium 2 hours prior to treatments. All cells were incubated for 96 hours in the absence (□) or presence of 25 μM CCDTHT ? , 50 μM CCDTHT ? , or 75 μM CCDTHT (▪). In this experiment, the viability of the cell cultures was estimated by Trypan blue exclusion using hematocytometer, a technique well known to one having ordinary skill in the art. Three independently treated cell cultures, involving at least 300 cells for each treatment, were analyzed. The experimental error is indicated as std. dev.

[2] = system: human leukemia xenografts (HL-60); experiment: HL-60 human leukemia xenograft model: tumor volume and survival; format: in vivo, mouse
Excerpt: Tumors were developed in first generation hybrid BDF1 (C57 B1 female×DBA/2 male) adult female mice kept at specified pathogen free (SPF) hygienic level. Suspensions of HL-60 human leukemia cells, or approximately 0.1 cm^3 volume of tumor tissue derived from HT-168 human melanoma, PC-3 human prostate adenocarcinoma, T47D human breast carcinoma, MXT mouse mammary cancer, or mouse B16 melanoma cells were implanted subcutaneously to develop the tumors. After 12-18 days when the tumor-bearing mice were first treated, the size of the tumors was in the 0.2-0.4 cm^3 range. All compounds used were dissolved in physiological (0.9%) saline (NaCl), and the agents, alone or in combinations, were applied subcutaneously or intraperitoneally in 50 μl volume. Tumor volume was determined by calipers in three dimensions; this technique is well known to one having ordinary skill in the art. Tumor volume was calculated according to the generally accepted formula: V=a^2×b×π/6, where “a” and “b” mean the shortest and longest diameter, respectively, of the measured tumor.
The HL-60 human leukemia model was developed and treated as described above. On day 12 the mice either remained untreated (Group 1) or were treated with 4.6 mg/kg CCDTHT (Group 2) or 4.6 mg/kg CCDTHT+15 mg/kg highly purified PALP (Group 3). Both CCDTHT and PALP were administered subcutaneously for three 5-day cycles with 2 resting days included between each 5-day cycle. In each group 7 mice were included.

[3] = CCDTHT 4.6 mg/kg s.c. without or with PALP 15 mg/kg s.c., 5-day cycles

## CC[N+](C)(CC)CCOCc1ccc2sc3ccccc3c(=O)c2c1.[I-] [CCDTHT, N,N-diethyl-N-methyl-2-[(9-oxo-9H-thioxanthen-2-yl)methoxy]-ethanaminium iodide]
U-87 cells
  number of viable U-87 cells: sharply decrease
HepG2 cells
  sensitivity to the inhibitory actions, HepG2: moderately sensitive
[1]; 50-75 μM, four days
  number of viable cancer cells, HL-60, HT-168, PC-3 and T47D: strongly decreased
[1]; Homo sapiens, 25 μM, 96 hours, Trypan blue, read-out: inhibition of cell proliferation, HL60, HT-168, PC-3 and T47D cells
  inhibition at 25 µM: 40 to 55%
[1]; Homo sapiens, 75 μM, 96 hours, Trypan blue, read-out: decrease in the number of viable cells, HL60, HT-168, PC-3 and T47D cells
  cytotoxicity at 75 µM: 65 to 85%
[2]; [3]
  Tumor volume, Day 16: 1.26 ± 0.73 cm^3
  Tumor volume, Day 22: 2.74 ± 0.37 cm^3
  Tumor volume, Day 26: 3.72 ± 0.44 cm^3
[2]; CCDTHT 4.6 mg/kg s.c. without or with PALP 15 mg/kg s.c., start of treatment
  Tumor volume, Day 12: 0.46 ± 0.32 cm^3
[2]; CCDTHT 4.6 mg/kg without or with PALP 15 mg/kg
  survival of leukemic mice: 34.9 ± 6.6 days
